{
  "source": "patent US20240368046A1",
  "about": "“UREA-BASED C[…] WITH AN INORGANIC ACID” (Y ara International ASA, priority 2021, published 2024)",
  "origin": "cited, not measured here",
  "data": [
    {"substance": "urea sulphate", "values": [
      {"measurement": "pKa", "result": "about 1.5"}
    ]}
  ]
}
